Results from patent US12383520B2, “Compound and composition for use in the treatment of premenstrual syndrome and/or premenstrual dysphoric disorder” (SYNAPHARM […], priority 2019, dated 2025).

Assays:
[1] = treatment of premenstrual syndrome and/or premenstrual dysphoric disorder (reduction of symptoms); assay type: in vivo; details: compared with other compounds, particularly other magnesium salts (like magnesium oxide)
[2] = stability over time of dihydrate versus anhydrous form; assay type: physicochemical; details: compared to non-dihydrate (anhydrous) magnesium N-acetyl-taurinate

| Substance | effectiveness (reduction of symptoms) in the treatment of premenstrual syndrome and/or premenstrual dysphoric disorder [1] | stability over time [2] |
| --- | --- | --- |
| magnesium N-acetyl-taurinate | more effective (reduction of symptoms) than the other compounds | – |
| magnesium N-acetyl-taurinate dihydrate | – | increased as compared to non-dihydrate magnesium N-acetyl-taurinate |
